The values that follow come from patent US11358931B2, “Selective androgen receptor modulators (SARMs) and uses thereof” (priority 2007, dated 2022).

Molecules are shown by their SMILES. Bounds are passed on as bounds.

The series relates to orchidectomized male Sprague-Dawley rat. The series can be described thus: In vivo assay, orchidectomized mature male rats (14 days oral). To be noted: for exposure (AUC24) at which muscle mass is stimulated above sham equivalent levels: ORX male rats, 14 days PO. From the text: The orchidectomized male Sprague-Dawley rat model was used to assess the effects of Compound 102 on various reproductive, gonadotropin and musculoskeletal endpoints, including sex accessory organs, bone, serum gonadotropin levels and striated muscle in mature male rats.
In this assay, two-month old rats were acclimated in a vivarium for one week. After this acclimation period, rats were surgically orchidectomized under isoflurane anesthesia and left untreated for 14 days. After 14 days, animals were sorted into groups such that no statistically significant differences in mean body weights were observed. Rats began receiving treatment 14 days after the day of surgery. Sham-operated and orchidectomized rats, treated with vehicle, served as controls. The different test groups were treated with various doses of Compound 102 (0.03 to 100 mg/kg/day per os (by mouth)). Dosages included 0.03, 0.1, 0.3, 1, 3, 10, 30 and 100 mg/kg/day. Ostarine, a non-steroidal androgenic drug (Evans et al., J Clin Oncology 25: 9119 (2007)) was dosed at dosages similar to other test groups as a comparison. After the 14th dose, venous blood was collected at 0, 1, 2, 4 and 6 hours after dosing. The blood samples were collected in EDTA-containing tubes (Becton Dickinson, Franklin Lakes, N.J.). Approximately 24 hours after the last dose, animals were euthanized and seminal vesicle weights, ventral prostate weights, levator ani weights, preputial gland weights and blood samples were collected on necropsy.
For serum, whole blood (5 mL) was collected in vacutainer tubes (Becton Dickinson) and the blood samples were allowed to clot at room temperature for about 2 hours. Serum was separated by centrifugation at 2500 rpm for 30 minutes, collected and frozen (−80° C.). For plasma, whole blood was collected in EDTA-containing tubes by centrifugation at 1000×g for 5 minutes at 4° C. Plasma samples were stored at −20° C.
For the preparation of all dose formulations, the appropriate amount of test compound (Compound 102) for the highest concentration to be administered was weighed. The compound was suspended in the formulation vehicle (5% Tween®-80 polysorbate, 90% PEG-400 polyethylene glycol and 5% PVP-K30 polyvinylpyrrolidone). The suspension was sonicated for 15 minutes, and the resulting formulation was diluted using vehicle to obtain the proper volume and concentrations of the dosing materials to achieve a dosing volume of 1 mL/kg body weight.
Serum samples were assayed with a double anti-serum procedure using reagents from the National Institute of Diabetes and Digestive and Kidney Diseases (NIDDK). Sample compounds and standards (NIDDK-rLH-RP-3) in a total volume of 200 μL were incubated at room temperature for 2 to 3 days with 100 μL primary anti-serum (rat LH antiserum: rabbit NIDDK-anti-rLH-S-11) diluted 1:100,000. Then, 100 μL of ^125I-labeled LH (Covance Laboratories Madison, Wis.) diluted 200,000-300,000 cpm/mL was added to the tubes and incubation continued for an additional 24 hour period.
Bound hormone was separated from free hormone by precipitation with a specific goat ant-rabbit serum (GARS from Antibodies, Inc., Davis, Calif.). An aliquot of 50 μL of 4% normal rabbit serum was added to each incubation tube, after which an additional 50 μL of a 1:10 GARS solution was added. The tubes were vortexed and incubated overnight at 4° C.
The assay was terminated by centrifugation at 2,500 rpm for 30 minutes in a Sorvall RC 3C Plus centrifuge (rotor #H2000B) at 4° C. The supernatants were decanted and discarded and the pellets were counted in a 10-channel gamma-counter.
Serum osteocalcin, a vitamin K-dependent, calcium binding protein, is a biochemical marker that reflects bone formation activity (Gundberg, J Clin Ligand Assay 21: 128-138 (1998)). Serum osteocalcin was quantitated using an IRMA kit from Immutopics, Inc. (#50-1500, San Clemente, Calif.). […] The test uses two different antibodies to measure the serum osteocalcin. […]

For `N#Cc1ccc(N2CCC[C@@H]2[C@@H](O)C(F)(F)F)cc1C(F)(F)F` [Compound 102, R,R-4-(2-(1-Hydroxyl-2,2,2-trifluoroethyl)-pyrrolidinyl)-2-trifluoromethyl-benzonitrile], the “exposure (AUC24) at which muscle mass is stimulated above sham equivalent levels” value is at least 1 µg·h/mL. Moreover, the preputial gland weight result (30 mg/kg/day, statistically significant) is “increased preputial gland weight above the sham level”. Further, where the note is “100 mg/kg/day PO (highest dose)”, the “ventral prostate or seminal vesicles, % of sham levels” value was “approximately 50%”. For the setting “all doses less than 10 mg/kg/day PO”, the preputial gland weight result is “remained below vehicle equivalent levels”. Also, under “exposures of 1 μg·/mL or greater”, the “ventral prostate, % of sham equivalent levels” value is “less than 50%”.
Take `C[C@](O)(COc1ccc(C#N)cc1)C(=O)Nc1ccc(C#N)c(C(F)(F)F)c1` [ostarine]: the “exposure (AUC24) at which muscle mass is stimulated above sham equivalent levels” value is on record as “greater than 10 μg·/mL”. Besides, under “any dose”, the “restoration of ventral prostate to sham equivalents” value is recorded as “did not restore ventral prostate to sham equivalents at any dose”.
